Test results published in patent US6525001B1, “Substituted pyrimidine and pyridine herbicides” (Mid-American Commercialization Corporation, priority 1997, dated 2003).

Assays:
Assay in all cases: Test D
Format in all cases: in vivo
[1] = test system: common poppy (Papaver rhoeas); parameters: key: 0 is no effect; 100 is complete control; conditions: PREEMERGENCE
[2] = test system: annual bluegrass (Poa annua); parameters: key: 0 is no effect; 100 is complete control; conditions: PREEMERGENCE
[3] = test system: winter barley (Hordeum vulgare); conditions: POSTEMERGENCE
Protocol: (§1) Compounds evaluated in this test were formulated in a non-phytotoxic solvent mixture which included a surfactant and applied to plants that were in the 1- to 4-leaf stage (postemergence application). A mixture of sandy loam soil and greenhouse potting mix in a 60:40 ratio was used for the postemergence test.
(§2) Plantings of these crops and weed species were adjusted to produce plants of appropriate size for the postemergence test. All plant species were grown using normal greenhouse practices. Crop and weed species include alfalfa (Medicago sativa), annual bluegrass (Poa annua), blackgrass (Alopecurus myosuroides), black nightshade (Solanum nigra), chickweed (Stellaria media), common poppy (Papaver rhoeas), deadnettle (Lamium amplexicaule), downy brome (Bromus tectorum), field violet (Viola arvensis), galium 2 (Galium aparine), green foxtail (Setaria viridis), Italian ryegrass (Lolium multiflorum), jointed goatgrass (Aegilops cylindrica), kochia (Kochia scoparia), lambsquarters (Chenopodium album), lentil (Lens culinaris), littleseed canarygrass (Phalaris minor), pea (Pisum sativum), potato (Solanum tuberosum), rape (Brassica napus), redroot pigweed (Amaranthus retroflexus), Russian thistle (Salsola kali), scentless chamomile (Matricaria inodora), sorghum (Sorghum vulgare), spring barley (Hordeum vulgare), sugar beet (Beta vulgaris), sunflower (Helianthus annuus), ivyleaf speedwell (Veronica hederaefolia), spring wheat (Triticum aestivum), winter wheat (Triticum aestivum), wild buckwheat (Polygonum convolvulus), wild mustard (Sinapis arvensis), wild oat (Avena fatua), windgrass (Apera spica-venti) and winter barley (Hordeum vulgare).
(§3) Treated plants and untreated controls were maintained in a greenhouse for approximately 21 to 28 days, after which all treated plants were compared to untreated controls and visually evaluated. Plant response ratings, summarized in Table D, are based upon a 0 to 100 scale where 0 is no effect and 100 is complete control. A dash response (−) means no test result.

[4] = test system: scentless chamomile (Matricaria inodora); conditions: POSTEMERGENCE
Protocol: as §1, §2, §3

[5] = test system: blackgrass (Alopecurus myosuroides); conditions: POSTEMERGENCE
Protocol: as §1, §2, §3

[6] = test system: winter wheat (Triticum aestivum); conditions: POSTEMERGENCE
Protocol: as §1, §2, §3

[7] = test system: spring barley (Hordeum vulgare); conditions: POSTEMERGENCE
Protocol: as §1, §2, §3

[8] = test system: downy brome (Bromus tectorum); conditions: POSTEMERGENCE
Protocol: as §1, §2, §3

[9] = test system: annual bluegrass (Poa annua); conditions: POSTEMERGENCE
Protocol: as §1, §2, §3

[10] = test system: wild oat (Avena fatua); conditions: POSTEMERGENCE
Protocol: as §1, §2, §3

[11] = test system: littleseed canarygrass (Phalaris minor); conditions: POSTEMERGENCE
Protocol: as §1, §2, §3

[12] = test system: spring wheat (Triticum aestivum); conditions: POSTEMERGENCE
Protocol: as §1, §2, §3

[13] = test system: Italian ryegrass (Lolium multiflorum); conditions: POSTEMERGENCE
Protocol: as §1, §2, §3

[14] = test system: jointed goatgrass (Aegilops cylindrica); conditions: POSTEMERGENCE
Protocol: as §1, §2, §3

[15] = test system: windgrass (Apera spica-venti); conditions: POSTEMERGENCE, Rate 62 g/ha
Protocol: as §1, §2, §3

[16] = test system: green foxtail (Setaria viridis); conditions: POSTEMERGENCE
Protocol: as §1, §2, §3

[17] = test system: sunflower (Helianthus annuus); conditions: POSTEMERGENCE
Protocol: as §1, §2, §3

[18] = test system: common poppy (Papaver rhoeas); parameters: key: 0 is no effect; 100 is complete control; conditions: POSTEMERGENCE
Protocol: as §1, §2, §3

[19] = test system: wild mustard (Sinapis arvensis); parameters: key: 0 is no effect; 100 is complete control; conditions: POSTEMERGENCE
Protocol: as §1, §2, §3

[20] = test system: chickweed (Stellaria media); parameters: key: 0 is no effect; 100 is complete control; conditions: POSTEMERGENCE
Protocol: as §1, §2, §3

[21] = test system: black nightshade (Solanum nigra); parameters: key: 0 is no effect; 100 is complete control; conditions: POSTEMERGENCE
Protocol: as §1, §2, §3

[22] = test system: sugar beet (Beta vulgaris); parameters: key: 0 is no effect; 100 is complete control; conditions: POSTEMERGENCE
Protocol: as §1, §2, §3

[23] = test system: field violet (Viola arvensis); parameters: key: 0 is no effect; 100 is complete control; conditions: PREEMERGENCE

Structure (SMILES): CCc1cnc(-c2ccc(C(F)(F)F)cc2)nc1Cc1cccc(C(F)(F)F)c1 [Compound 22]
- Plant response rating, Common poppy ([1]; Rate 62 g/ha): 60
- Plant response rating, Common poppy ([1]; Rate 125 g/ha): 70
- Plant response rating, Common poppy ([1]; Rate 250 g/ha): 70
- Plant response rating, Annual bluegras ([2]; Rate 62 g/ha): 20
- Plant response rating, Annual bluegras ([2]; Rate 125 g/ha): 100
- Plant response rating, Annual bluegras ([2]; Rate 250 g/ha): 50
- Plant response rating, Barley (winter) ([3]; Rate 62 g/ha): 10
- Plant response rating, Barley (winter) ([3]; Rate 125 g/ha): 10
- Plant response rating, Scentless chamo ([4]; Rate 62 g/ha): 50
- Plant response rating, Scentless chamo ([4]; Rate 125 g/ha): 80
- Plant response rating, Blackgrass ([5]; Rate 62 g/ha): 10
- Plant response rating, Blackgrass ([5]; Rate 125 g/ha): 20
- Plant response rating, Wheat (winter) ([6]; Rate 62 g/ha): 10
- Plant response rating, Wheat (winter) ([6]; Rate 125 g/ha): 10
- Plant response rating, Spring Barley ([7]; Rate 62 g/ha): 10
- Plant response rating, Spring Barley ([7]; Rate 125 g/ha): 20
- Plant response rating, Downy brome ([8]; Rate 62 g/ha): 10
- Plant response rating, Downy brome ([8]; Rate 125 g/ha): 20
- Plant response rating, Annual bluegras ([9]; Rate 62 g/ha): 30
- Plant response rating, Annual bluegras ([9]; Rate 125 g/ha): 70
- Plant response rating, Wild oat ([10]; Rate 62 g/ha): 20
- Plant response rating, Wild oat ([10]; Rate 125 g/ha): 65
- Plant response rating, LS canarygrass ([11]; Rate 62 g/ha): 20
- Plant response rating, LS canarygrass ([11]; Rate 125 g/ha): 60
- Plant response rating, Spring Wheat ([12]; Rate 62 g/ha): 10
- Plant response rating, Spring Wheat ([12]; Rate 125 g/ha): 20
- Plant response rating, I. Ryegrass ([13]; Rate 62 g/ha): 10
- Plant response rating, I. Ryegrass ([13]; Rate 125 g/ha): 10
- Plant response rating, Jointed goatgra ([14]; Rate 62 g/ha): 10
- Plant response rating, Jointed goatgra ([14]; Rate 125 g/ha): 15
- Plant response rating, Windgrass [15]: 30
- Plant response rating, Green foxtail ([16]; Rate 62 g/ha): 10
- Plant response rating, Green foxtail ([16]; Rate 125 g/ha): 35
- Plant response rating, Sunflower ([17]; Rate 62 g/ha): 10
- Plant response rating, Sunflower ([17]; Rate 125 g/ha): 20
- Plant response rating, Common poppy ([18]; Rate 62 g/ha): 100
- Plant response rating, Common poppy ([18]; Rate 125 g/ha): 100
- Plant response rating, Wild mustard ([19]; Rate 62 g/ha): 100
- Plant response rating, Wild mustard ([19]; Rate 125 g/ha): 100
- Plant response rating, Chickweed ([20]; Rate 62 g/ha): 60
- Plant response rating, Chickweed ([20]; Rate 125 g/ha): 100
- Plant response rating, Blk nightshade ([21]; Rate 62 g/ha): 90
- Plant response rating, Blk nightshade ([21]; Rate 125 g/ha): 100
- Plant response rating, Sugar beet ([22]; Rate 62 g/ha): 100
- Plant response rating, Sugar beet ([22]; Rate 125 g/ha): 100

Structure (SMILES): CCc1cnc(-n2ccc(C(F)(F)F)n2)nc1Cc1cccc(C(F)(F)F)c1 [Compound 46]
- Plant response rating, Field violet ([23]; Rate 31 g/ha): 85
- Plant response rating, Field violet ([23]; Rate 62 g/ha): 100
- Plant response rating, Common poppy ([1]; Rate 31 g/ha): 100
- Plant response rating, Common poppy ([1]; Rate 62 g/ha): 100
- Plant response rating, Annual bluegras ([2]; Rate 31 g/ha): 60
- Plant response rating, Annual bluegras ([2]; Rate 62 g/ha): 90
